Data from PubChem BioAssay AID1259407 (Chemical Carcinogenesis Research Information System (CCRIS), 2018).
The source made the active and inactive calls. How the calls were made is not given here.

Tested on: CCRIS mutagenicity, Ames/micronucleus/aberration tests
Test: CCRIS mutagenicity studies
[1] = Test System: AMES SALMONELLA TYPHIMURIUM, Strain/Indicator: TA98, Metabolic Activation: NONE, Method: STANDARD PLATE
[2] = Test System: AMES SALMONELLA TYPHIMURIUM, Strain/Indicator: TA100, Metabolic Activation: NONE, Method: STANDARD PLATE

`C=C(C)C(=O)OCCOC(=O)NCCC(C)CC(C)(C)CNC(=O)OCCOC(=O)C(=C)C` (stereo unspecified) was tested, and the mutagenic call (Test System: AMES SALMONELLA TYPHIMURIUM, Strain/Indicator: TA97A, Metabolic Activation: NONE, Method: STANDARD PLATE) was “inactive; negative”, the mutagenic call (Test System: AMES SALMONELLA TYPHIMURIUM, Strain/Indicator: TA97A, Metabolic Activation: RAT LIVER S-9, PHENOBARBITAL AND BETA-NAPHTHAFLAVONE, Method: STANDARD PLATE) was “inactive; negative” and the mutagenic call [1] was “inactive; negative”. For the same molecule, the mutagenic call (Test System: AMES SALMONELLA TYPHIMURIUM, Strain/Indicator: TA98, Metabolic Activation: RAT LIVER S-9, PHENOBARBITAL AND BETA-NAPHTHAFLAVONE, Method: STANDARD PLATE) was “inactive; negative”, the mutagenic call [2] was “inactive; negative” and the mutagenic call (Test System: AMES SALMONELLA TYPHIMURIUM, Strain/Indicator: TA100, Metabolic Activation: RAT LIVER S-9, PHENOBARBITAL AND BETA-NAPHTHAFLAVONE, Method: STANDARD PLATE) was “inactive; negative”. The mutagenic call (Test System: AMES SALMONELLA TYPHIMURIUM, Strain/Indicator: TA102, Metabolic Activation: NONE, Method: STANDARD PLATE) was “inactive; negative”, the mutagenic call (Test System: AMES SALMONELLA TYPHIMURIUM, Strain/Indicator: TA102, Metabolic Activation: RAT LIVER S-9, PHENOBARBITAL AND BETA-NAPHTHAFLAVONE, Method: STANDARD PLATE) was “inactive; negative” and the mutagenic call (Test System: CHINESE HAMSTER V-79, Strain/Indicator: V79 (HPRT)/6-THIOGUANINE, Metabolic Activation: NONE) was “inactive; negative”.

For `O=[N+]([O-])c1ccc2ccc3cc4c(c5ccc1c2c35)C=C[C@H](O)[C@H]4O`, the mutagenic call (Test System: AMES SALMONELLA TYPHIMURIUM, Strain/Indicator: TA98(1,8-DNP6), Metabolic Activation: NONE) was “active; positive”, the mutagenic call (Test System: AMES SALMONELLA TYPHIMURIUM, Strain/Indicator: TA98(1,8-DNP6), Metabolic Activation: RAT, LIVER, S-9, AROCLOR 1254) was “active; positive” and the mutagenic call (Test System: AMES SALMONELLA TYPHIMURIUM, Strain/Indicator: TA98(NR), Metabolic Activation: NONE) was “active; positive”. For the same molecule, the mutagenic call (Test System: AMES SALMONELLA TYPHIMURIUM, Strain/Indicator: TA98(NR), Metabolic Activation: RAT, LIVER, S-9, AROCLOR 1254) was “active; positive”, the mutagenic call (Test System: AMES SALMONELLA TYPHIMURIUM, Strain/Indicator: TA98, Metabolic Activation: NONE) was “active; positive” and the mutagenic call (Test System: AMES SALMONELLA TYPHIMURIUM, Strain/Indicator: TA98, Metabolic Activation: RAT, LIVER, S-9, AROCLOR 1254) was “active; positive”. The mutagenic call (Test System: CHINESE HAMSTER OVARY, Strain/Indicator: CHO-K1-BH4 (HGPRT), Metabolic Activation: NONE) was “active; positive” and the mutagenic call (Test System: CHINESE HAMSTER OVARY, Strain/Indicator: CHO-K1-BH4 (HGPRT), Metabolic Activation: RAT, LIVER, S-9, 3-METHYLCHOLANTHRENE) was “active; positive”.

With `O=C(O)c1cc2c(c3c1c([N+](=O)[O-])cc1ccccc13)OCO2` the mutagenic call (Test System: AMES SALMONELLA TYPHIMURIUM, Strain/Indicator: TA98, Metabolic Activation: RAT, LIVER, S-9, Method: STANDARD PLATE) was “inactive; negative”, the mutagenic call [2] was “active; positive” and the mutagenic call (Test System: AMES SALMONELLA TYPHIMURIUM, Strain/Indicator: TA100, Metabolic Activation: RAT, LIVER, CYTOSOL, Method: STANDARD PLATE) was “active; positive”. For the same molecule, the mutagenic call (Test System: AMES SALMONELLA TYPHIMURIUM, Strain/Indicator: TA100, Metabolic Activation: RAT, LIVER, MICROSOMES, Method: STANDARD PLATE) was “active; positive”, the mutagenic call (Test System: AMES SALMONELLA TYPHIMURIUM, Strain/Indicator: TA100, Metabolic Activation: RAT, LIVER, S-9, 3-METHYLCHOLANTHRENE, Method: STANDARD PLATE) was “active; positive” and the mutagenic call (Test System: AMES SALMONELLA TYPHIMURIUM, Strain/Indicator: TA1537, Metabolic Activation: NONE, Method: STANDARD PLATE) was “active; positive”. For the same molecule, the mutagenic call (Test System: AMES SALMONELLA TYPHIMURIUM, Strain/Indicator: YG1020, Metabolic Activation: NONE, Method: STANDARD PLATE) was “active; positive”, the mutagenic call (Test System: AMES SALMONELLA TYPHIMURIUM, Strain/Indicator: YG1021, Metabolic Activation: NONE, Method: STANDARD PLATE) was “active; positive” and the mutagenic call (Test System: AMES SALMONELLA TYPHIMURIUM, Strain/Indicator: YG1024, Metabolic Activation: NONE, Method: STANDARD PLATE) was “active; positive”. The mutagenic call (Test System: AMES SALMONELLA TYPHIMURIUM, Strain/Indicator: YG1025, Metabolic Activation: NONE, Method: STANDARD PLATE) was “active; positive”, the mutagenic call (Test System: AMES SALMONELLA TYPHIMURIUM, Strain/Indicator: YG1026, Metabolic Activation: NONE, Method: STANDARD PLATE) was “active; positive” and the mutagenic call (Test System: AMES SALMONELLA TYPHIMURIUM, Strain/Indicator: YG1029, Metabolic Activation: NONE, Method: STANDARD PLATE) was “active; positive”.

In the case of `[N-]=[N+]=NC[C@@H]1O[C@H](O)[C@H](O)[C@@H](O)[C@@H]1O`, the mutagenic call [1] is reported as “inactive; negative” and the mutagenic call [2] is reported as “active; positive”.
